The record followed here is patent US5661167A, “Prolyl endopeptidase inhibitors” (Merrell Pharmaceuticals Inc., priority 1996, dated 1997).

The assay has as its target T1, Prolyl endopeptidase (Bos taurus, UniProt Q9XTA2).
T1 construct: Prolyl endopeptidase was partially purified from bovine brain; from tissue; host or cells: bovine brain
T1 sequence (Q9XTA2 1-710): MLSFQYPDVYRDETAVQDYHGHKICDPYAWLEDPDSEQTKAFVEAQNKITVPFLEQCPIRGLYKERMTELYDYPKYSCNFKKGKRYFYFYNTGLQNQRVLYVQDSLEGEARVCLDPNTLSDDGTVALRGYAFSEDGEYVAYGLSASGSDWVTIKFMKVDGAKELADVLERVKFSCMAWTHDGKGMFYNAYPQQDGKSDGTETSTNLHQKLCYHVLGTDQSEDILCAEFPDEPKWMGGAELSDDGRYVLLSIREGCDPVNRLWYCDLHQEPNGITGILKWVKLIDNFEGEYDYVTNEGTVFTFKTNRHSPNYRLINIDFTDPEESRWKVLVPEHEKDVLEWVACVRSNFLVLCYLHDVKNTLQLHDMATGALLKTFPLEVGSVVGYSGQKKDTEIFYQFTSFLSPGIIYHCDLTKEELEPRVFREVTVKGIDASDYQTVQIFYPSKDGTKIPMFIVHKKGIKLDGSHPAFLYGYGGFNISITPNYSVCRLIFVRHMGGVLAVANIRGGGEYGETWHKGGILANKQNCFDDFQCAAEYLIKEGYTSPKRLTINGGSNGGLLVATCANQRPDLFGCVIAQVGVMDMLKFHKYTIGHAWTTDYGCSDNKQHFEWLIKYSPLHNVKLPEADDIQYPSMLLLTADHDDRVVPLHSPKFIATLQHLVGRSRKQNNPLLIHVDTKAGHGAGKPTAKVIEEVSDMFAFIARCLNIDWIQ
Nature of the assay: Prolyl endopeptidase enzyme inhibition assay (CBz-Gly-Pro-p-nitroanilide substrate, absorbance at 410 nm). In kind it is biochemical. As to conditions: prolyl endopeptidase partially purified from bovine brain, buffer A (50 mM HEPES pH 7.4, 1 mM EDTA, 1 mM DTT), 37° C., [S]=50 μM, KM 11 μM, read-out: ENZYME INHIBITION (enzyme inhibition constant, Ki). As to the method:
Prolyl endopeptidase was partially purified from bovine brain essentially as described by Yoshimoto et al. (Biochem., 94, 1179 (1983)) except that 50 mM HEPES, pH 7.4, was used instead of Tris buffer. This enzyme preparation is suitable for routine inhibition measurements; however, the enzyme may be further purified as described below. The state of purity of the enzyme is not expected to effect the measured Ki. The pellet from the 50%-80% ammonium sulfate cut is redissolved in the homogenization buffer and desalted by passage through a Pharmacia Mono Q column (0.5×5 cm) at 1 ml/min and the column is washed with 5 ml of buffer A to buffer B (total 20 ml; buffer A=50 mM HEPES, pH 7.4, 1 mM EDTA and 1 mM DTT; buffer B=buffer A+0.5M NaCl). Enzyme activity elutes at about [NaCl]=0.25M.
The enzyme is assayed in buffer A (3.0 ml) at 37° C. containing 20 μM substrate (CBz-Gly-Pro-p-nitroanilide). The increase in absorbance at 410 nm is monitored (410 nm =8.4 mM^-1 cm^-1). Inhibitor stock solutions are made in DMSO. To characterize reversible competitive inhibitors, the initial rates in the presence of three inhibitor concentrations are measured using [S]=50 μM (KM for the substrate is 11 μM). If slow binding is observed, the final equilibrium rates are used.
The Ki for a competitive inhibitor is calculated using known formulas: vo /vi =(1+[I]/Ki, app) and Ki =Ki, app/(1+[S]/KM), where vo is the initial rate in the absence of inhibitor, vi is the initial rate in the presence of inhibitor at the concentration [I], and [S] is the substrate concentration. If "slow binding" is observed (i.e. if the approach to the binding equilibrium is slow), the final steady-state rate rather than the initial rate is taken as vi.
Enzyme inhibition constants were found using the described methods for various compounds of formula 1.
As for `O=C(OCc1ccccc1)N1CCCC1C(=O)N1CCCC1C(=O)C(F)(F)C(F)(F)F` (stereo not drawn) [EXAMPLE I, 2-[[2-(2,2,3,3,3-pentafluoro-1-oxopropyl)-1-pyrrolidinyl]carbonyl]-1-pyrrolidinecarboxylic acid, phenylmethyl ester], the Ki amounted to 1.4 nM.

As for `O=C(OCc1ccccc1)N1CSCC1C(=O)N1CCCC1C(=O)C(F)(F)C(F)(F)F` (stereo not drawn) [EXAMPLE II, 4-[[2-(2,2,3,3,3-pentafluoro-1-oxopropyl)-1-pyrrolidinyl]carbonyl]-3-thiazolidinecarboxylic acid, phenylmethyl ester], the Ki was 1 nM.

Turning to `CC(C)(C)OC(=O)N1CSCC1C(=O)N1CSCC1C(=O)C(F)(F)C(F)(F)F` (stereo not drawn) [EXAMPLE IV, 4-[[4-(2,2,3,3,3-pentafluoro-1-oxopropyl)-3-thiazolidinyl]carbonyl]-3-thiazolidinecarboxylic acid, 1,1-dimethylethyl ester], the Ki stood at 1 nM.

Broadly, the Ki is a measure of affinity in units of concentration, obtained from inhibition or displacement.
